{"source": "patent US10538495B2", "about": "“Modulators of indoleamine 2,3-dioxygenase” (GLAXOSMITHKLINE INTELLECTUAL PROPERTY DEVELOPMENT LIMITED, priority 2016, dated 2020)", "key": {"[1]": {"target": "T1, indoleamine 2,3-dioxygenase (IDO1) (Homo sapiens, UniProt P14902)", "T1 sequence (P14902 whole entry)": "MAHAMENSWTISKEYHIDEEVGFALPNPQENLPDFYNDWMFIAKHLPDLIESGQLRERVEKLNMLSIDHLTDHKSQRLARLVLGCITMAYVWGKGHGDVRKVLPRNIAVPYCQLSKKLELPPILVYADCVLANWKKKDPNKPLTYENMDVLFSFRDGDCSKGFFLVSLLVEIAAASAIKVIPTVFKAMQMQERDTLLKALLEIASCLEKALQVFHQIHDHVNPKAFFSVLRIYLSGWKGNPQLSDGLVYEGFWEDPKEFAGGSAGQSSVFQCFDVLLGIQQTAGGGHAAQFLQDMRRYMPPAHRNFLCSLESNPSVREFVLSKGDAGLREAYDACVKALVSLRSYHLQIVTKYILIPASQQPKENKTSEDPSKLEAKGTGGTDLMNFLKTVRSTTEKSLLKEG", "test": "PBMC IDOi assay (kynurenine by mass spectrometry)", "type": "cell-based", "conditions": "IFN-γ and LPS stimulated human PBMC, 2 days, kynurenine detected by mass spectrometry; read-out: PBMC pIC50 (converted)", "description": "(§1) Brief descriptions of the cellular assays are provided following the table.\n(§2) Compounds of the present invention were tested via high-throughput cellular assays utilizing detection of kynurenine via mass spectrometry and cytotoxicity as end-points. For the mass spectrometry and cytotoxicity assays, human peripheral blood mononuclear cells (PBMC) (PB003F; AllCells®, Alameda, Calif.) were stimulated with human interferon-γ (IFN-γ) (Sigma-Aldrich Corporation, St. Louis, Mo.) and lipopolysaccharide from Salmonella minnesota (LPS) (Invivogen, San Diego, Calif.) to induce the expression of indoleamine 2,3-dioxygenase (IDO1). Compounds with IDO1 inhibitory properties decreased the amount of kynurenine produced by the cells via the tryptophan catabolic pathway. Cellular toxicity due to the effect of compound treatment was measured using CellTiter-Glo® reagent (CTG) (Promega Corporation, Madison, Wis.), which is based on luminescent detection of ATP, an indicator of metabolically active cells.\n(§3) In preparation for the assays, test compounds were serially diluted 3-fold in DMSO from a typical top concentration of 5 mM and plated at 0.5 μL in 384-well, polystyrene, clear bottom, tissue culture treated plates with lids (Greiner Bio-One, Kremsmünster, Austria) to generate 11-point dose response curves. Low control wells (0% kynurenine or 100% cytotoxicity) contained either 0.5 μL of DMSO in the presence of unstimulated (−IFN-γ/−LPS) PBMCs for the mass spectrometry assay or 0.5 μL of DMSO in the absence of cells for the cytotoxicity assay, and high control wells (100% kynurenine or 0% cytotoxicity) contained 0.5 μL of DMSO in the presence of stimulated (+IFN-γ/+LPS) PBMCs for both the mass spectrometry and cytotoxicity assays.\nFrozen stocks of PBMCs were washed and recovered in RPMI 1640 medium (Thermo Fisher Scientific, Inc., Waltham, Mass.) supplemented with 10% v/v heat-inactivated fetal bovine serum (FBS) (Thermo Fisher Scientific, Inc., Waltham, Mass.), and 1× penicillin-streptomycin antibiotic solution (Thermo Fisher Scientific, Inc., Waltham, Mass.). The cells were diluted to 1,000,000 cells/mL in the supplemented RPMI 1640 medium. 50 μL of either the cell suspension, for the mass spectrometry assay, or medium alone, for the cytotoxicity assay, were added to the low control wells, on the previously prepared 384-well compound plates, resulting in 50,000 cells/well or 0 cells/well respectively. IFN-γ and LPS were added to the remaining cell suspension at final concentrations of 100 ng/ml and 50 ng/ml respectively, and 50 μL of the stimulated cells were added to all remaining wells on the 384-well compound plates. The plates, with lids, were then placed in a 37° C., 5% CO2 humidified incubator for 2 days.\nFollowing incubation, the 384-well plates were removed from the incubator and allowed to equilibrate to room temperature for 30 minutes. For the cytotoxicity assay, CellTiter-Glo® was prepared according to the manufacturer's instructions, and 40 μL were added to each plate well. After a twenty minute incubation at room temperature, luminescence was read on an EnVision® Multilabel Reader (PerkinElmer Inc., Waltham, Mass.). For the mass spectrometry assay, 10 μL of supernatant from each well of the compound-treated plates were added to 40 μL of acetonitrile, containing 10 μM of an internal standard for normalization, in 384-well, polypropylene, V-bottom plates (Greiner Bio-One, Kremsmünster, Austria) to extract the organic analytes. Following centrifugation at 2000 rpm for 10 minutes, 10 μL from each well of the acetonitrile extraction plates were added to 90 μL of sterile, distilled H2O in 384-well, polypropylene, V-bottom plates for analysis of kynurenine and the internal standard on the RapidFire 300 (Agilent Technologies, Santa Clara, Calif.) and 4000 QTRAP MS (SCIEX, Framingham, Mass.). […]"}, "[2]": {"target": "T1, indoleamine 2,3-dioxygenase (IDO1)", "test": "HeLa IDOi assay (kynurenine by mass spectrometry)", "type": "cell-based", "set-up": "human epithelial HeLa cells (CCL-2; host or cells: HeLa cells stimulated with human IFN-γ", "conditions": "IFN-γ stimulated HeLa cells, 2 days, kynurenine detected by mass spectrometry; read-out: HeLa pIC50 (converted)", "description": "as §1\nas §2, with “epithelial HeLa” for “peripheral blood mononuclear”, “(CCL-2; ATCC®, Manassas, Va.)” for “(PBMC) (PB003F; AllCells®, Alameda, Calif.)”, “Mo.)” for “Mo.) and lipopolysaccharide from Salmonella minnesota (LPS) (Invivogen, San Diego, Calif.)”\nas §3, with “(−IFN-γ) HeLa cells” for “(−IFN-γ/−LPS) PBMCs”, “(+IFN-γ) HeLa cells” for “(+IFN-γ/+LPS) PBMCs”\nFrozen stocks of HeLa cells were washed and recovered in DMEM high glucose medium with HEPES (Thermo Fisher Scientific, Inc., Waltham, Mass.) supplemented with 10% v/v certified fetal bovine serum (FBS) (Thermo Fisher Scientific, Inc., Waltham, Mass.), and 1× penicillin-streptomycin antibiotic solution (Thermo Fisher Scientific, Inc., Waltham, Mass.). The cells were diluted to 100,000 cells/mL in the supplemented DMEM medium. 50 μL of either the cell suspension, for the mass spectrometry assay, or medium alone, for the cytotoxicity assay, were added to the low control wells, on the previously prepared 384-well compound plates, resulting in 5,000 cells/well or 0 cells/well respectively. IFN-γ was added to the remaining cell suspension at a final concentration of 10 nM, and 50 μL of the stimulated cells were added to all remaining wells on the 384-well compound plates. The plates, with lids, were then placed in a 37° C., 5% CO2 humidified incubator for 2 days.\nFollowing incubation, the 384-well plates were removed from the incubator and allowed to equilibrate to room temperature for 30 minutes. For the cytotoxicity assay, CellTiter-Glo® was prepared according to the manufacturer's instructions, and 10 μL were added to each plate well. After a twenty minute incubation at room temperature, luminescence was read on an EnVision® Multilabel Reader (PerkinElmer Inc., Waltham, Mass.). For the mass spectrometry assay, 10 μL of supernatant from each well of the compound-treated plates were added to 40 μL of acetonitrile, containing 10 μM of an internal standard for normalization, in 384-well, polypropylene, V-bottom plates (Greiner Bio-One, Kremsmünster, Austria) to extract the organic analytes. Following centrifugation at 2000 rpm for 10 minutes, 10 μL from each well of the acetonitrile extraction plates were added to 90 μL of sterile, distilled H2O in 384-well, polypropylene, V-bottom plates for analysis of kynurenine and the internal standard on the RapidFire 300 (Agilent Technologies, Santa Clara, Calif.) and 4000 QTRAP MS (SCIEX, Framingham, Mass.). MS data were integrated using Agilent Technologies' RapidFire Integrator software, and data were normalized for analysis as a ratio of kynurenine to the internal standard. […]"}}, "data": [{"smiles": "Cc1ccc(CC(=O)Nc2cc(-c3ccccc3C#N)ccc2SC(C)(C)C)cc1", "note": "[Example 46, N-(4-(tert-butylthio)-2′-cyano-[1,1′-biphenyl]-3-yl)-2-(p-tolyl)acetamide]", "values": [{"measurement": "IC50", "setting": "[1]", "value": 5010, "unit": "nM"}, {"measurement": "IC50", "setting": "[2]", "value": 6310, "unit": "nM"}]}, {"smiles": "Cc1ccc(CC(=O)Nc2cc(-c3ccccc3-c3nnn(COP(=O)(O)O)n3)ccc2SC(C)(C)C)cc1", "note": "[Example 51, (5-(4′-(tert-Butylthio)-3′-(2-(p-tolyl)acetamido)-[1,1′-biphenyl]-2-yl)-2H-tetrazol-2-yl)methyl Dihydrogen Phosphate]", "values": [{"measurement": "IC50", "setting": "[1]", "value": 63.1, "unit": "nM"}, {"measurement": "IC50", "setting": "[2]", "value": 15.8, "unit": "nM"}]}, {"smiles": "Cc1ccc(CC(=O)Nc2cc(C(C)CC(=O)O)ccc2SC(C)(C)C)cc1", "note": "(stereo not shown) [Example 44, 3-(4-(tert-Butylthio)-3-(2-(p-tolyl)acetamido)phenyl)butanoic Acid]", "values": [{"measurement": "IC50", "setting": "[1]", "value": 3980, "unit": "nM"}]}, {"smiles": "Cc1cccc(CC(=O)Nc2cc(-c3ccccc3-c3nn[nH]n3)ccc2SC(C)(C)C)c1", "note": "[Example 20, N-(4-(tert-butylthio)-2′-(2H-tetrazol-5-yl)-[1,1′-biphenyl]-3-yl)-2-(m-tolyl)acetamide]", "values": [{"measurement": "IC50", "setting": "[1]", "value": 20, "unit": "nM"}, {"measurement": "IC50", "setting": "[2]", "value": 25.1, "unit": "nM"}]}, {"smiles": "CC(C)(C)Sc1ccc(-c2ccccc2-c2nn[nH]n2)cc1NC(=O)Cc1ccc(Br)cc1", "note": "[Example 40, 2-(4-Bromophenyl)-N-(4-(tert-butylthio)-2′-(2H-tetrazol-5-yl)-[1,1′-biphenyl]-3-yl)acetamide]", "values": [{"measurement": "IC50", "setting": "[1]", "value": 20, "unit": "nM"}, {"measurement": "IC50", "setting": "[2]", "value": 31.6, "unit": "nM"}]}, {"smiles": "Cc1ccc(CC(=O)Nc2cc(-c3ccccc3C(N)=O)ccc2SC(C)(C)C)cc1", "note": "[Example 47, 4′-(tert-Butylthio)-3′-(2-(p-tolyl)acetamido)-[1,1′-biphenyl]-2-carboxamide]", "values": [{"measurement": "IC50", "setting": "[1]", "value": 501, "unit": "nM"}, {"measurement": "IC50", "setting": "[2]", "value": 501, "unit": "nM"}]}, {"smiles": "CC(C)(C)Sc1ncc(-c2ccccc2-c2nnn[nH]2)cc1NC(=O)Cc1ccc(C(F)(F)F)cc1", "note": "[Example 65, N-(5-(2-(1H-tetrazol-5-yl)phenyl)-2-(tert-butylthio)pyridin-3-yl)-2-(4-(trifluoromethyl)phenyl)acetamide]", "values": [{"measurement": "IC50", "setting": "[1]", "value": 25.1, "unit": "nM"}, {"measurement": "IC50", "setting": "[2]", "value": 39.8, "unit": "nM"}]}, {"smiles": "CC(C)(C)Sc1ccc(-c2ccccc2-c2nn[nH]n2)cc1Nc1nc(C(F)(F)F)ns1", "note": "[Example 43, N-(4-(tert-butylthio)-2′-(2H-tetrazol-5-yl)-[1,1′-biphenyl]-3-yl)-3-(trifluoromethyl)-1,2,4-thiadiazol-5-amine]", "values": [{"measurement": "IC50", "setting": "[1]", "value": 12.6, "unit": "nM"}, {"measurement": "IC50", "setting": "[2]", "value": 50.1, "unit": "nM"}]}, {"smiles": "Cc1ccc(CC(=O)Nc2cc(-c3ccccc3-c3nnn[nH]3)cnc2SC(C)(C)C)c(C)c1", "note": "[Example 66, N-(5-(2-(1H-tetrazol-5-yl)phenyl)-2-(tert-butylthio)pyridin-3-yl)-2-(2,4-dimethylphenyl)acetamide]", "values": [{"measurement": "IC50", "setting": "[1]", "value": 7.94, "unit": "nM"}, {"measurement": "IC50", "setting": "[2]", "value": 10, "unit": "nM"}]}, {"smiles": "CC(C)(C)Sc1ncc(-c2ccccc2-c2nnn[nH]2)cc1NC(=O)Cc1ccccc1C(F)(F)F", "note": "[Example 67, N-(5-(2-(1H-tetrazol-5-yl)phenyl)-2-(tert-butylthio)pyridin-3-yl)-2-(2-(trifluoromethyl)phenyl)acetamide]", "values": [{"measurement": "IC50", "setting": "[1]", "value": 12.6, "unit": "nM"}, {"measurement": "IC50", "setting": "[2]", "value": 100, "unit": "nM"}]}, {"smiles": "Cc1ccc(OC(=O)Nc2cc(-c3ccccc3-c3nn[nH]n3)ccc2SC(C)(C)C)cc1", "note": "[Example 35, p-Tolyl (4-(tert-butylthio)-2′-(2H-tetrazol-5-yl)-[1,1′-biphenyl]-3-yl)carbamate]", "values": [{"measurement": "IC50", "setting": "[1]", "value": 1580, "unit": "nM"}, {"measurement": "IC50", "setting": "[2]", "value": "> 3160", "unit": "nM"}]}, {"smiles": "Cc1ccc(CC(=O)Nc2cc(-c3ccccc3-c3nn[nH]n3)ccc2S(=O)(=O)c2ccccc2)cc1", "note": "[Example 15, N-(4-(phenylsulfonyl)-2′-(2H-tetrazol-5-yl)-[1,1′-biphenyl]-3-yl)-2-(p-tolyl)acetamide]", "values": [{"measurement": "IC50", "setting": "[1]", "value": 2000, "unit": "nM"}, {"measurement": "IC50", "setting": "[2]", "value": 2000, "unit": "nM"}]}, {"smiles": "Cc1ccc(NC(=O)Nc2cc(-c3ccccc3C(=O)O)ccc2SC(C)(C)C)cc1", "note": "[Example 14, 4′-(tert-Butylthio)-3′-(3-(p-tolyl)ureido)-[1,1′-biphenyl]-2-carboxylic Acid]", "values": [{"measurement": "IC50", "setting": "[1]", "value": 1580, "unit": "nM"}]}, {"smiles": "Cc1ccc(CC(=O)Nc2cc(-c3ccccc3-c3nn[nH]n3)ccc2SC2CCOCC2)cc1", "note": "[Example 12, N-(4-((tetrahydro-2H-pyran-4-yl)thio)-2′-(2H-tetrazol-5-yl)-[1,1′-biphenyl]-3-yl)-2-(p-tolyl)acetamide]", "values": [{"measurement": "IC50", "setting": "[2]", "value": 5010, "unit": "nM"}]}, {"smiles": "Cc1ccc(CC(=O)Nc2cc(-c3ccccc3-c3nnn(C)n3)ccc2SC(C)(C)C)cc1", "note": "[Example 61, N-(4-(tert-butylthio)-2′-(2-methyl-2H-tetrazol-5-yl)-[1,1′-biphenyl]-3-yl)-2-(p-tolyl)acetamide]", "values": [{"measurement": "IC50", "setting": "[2]", "value": 631, "unit": "nM"}]}, {"smiles": "CC(C)(C)OC(=O)N1CCC(CC(=O)Nc2cc(-c3ccccc3-c3nn[nH]n3)ccc2SC(C)(C)C)CC1", "note": "[Example 29]", "values": [{"measurement": "IC50", "setting": "[2]", "value": 5010, "unit": "nM"}]}, {"smiles": "Cc1ccc(CC(=O)Nc2cc(-c3ccccc3-c3nn[nH]n3)ccc2SC(C)(C)C)cc1F", "note": "[Example 21, N-(4-(tert-butylthio)-2′-(2H-tetrazol-5-yl)-[1,1′-biphenyl]-3-yl)-2-(3-fluoro-4-methylphenyl)acetamide]", "values": [{"measurement": "IC50", "setting": "[2]", "value": 20, "unit": "nM"}]}]}
